How the values were obtained:
androgen receptor (AR) = target: T1, androgen receptor (AR) (Homo sapiens, UniProt P10275); experiment: Test 1: androgen receptor transcriptional activation (2XIDR17-luciferase) assay in transfected C2C12 cells; assay type: cell-based; settings: for % Biological activity (C2C12 cell) 100 nM / % Biological activity (C2C12 cell) 5 μM: C2C12 cells, relative to 1 μM DHT; for % Biological activity (C2C12 cell) 100 nM: compound at 100 nM; for % Biological activity (C2C12 cell) 5 μM: compound at 5 μM; for Emax: C2C12, C2C12 cells, percentage activity relative to 1 μM DHT, read-out: Biological activity (C2C12 cell) Emax % (converted); for EC50: mouse myoblastic C2C12 cells transfected with full-length AR and 2XIDR17-luciferase, read-out: Biological activity (C2C12 cell) EC50
T1 construct: transfecting C2C12 cells with a plasmid containing full-length AR; expressed in transfected cells; host or cells: mouse myoblastic C2C12 cells (ATCC CRL-1772), transiently transfected with AR-FL in pcDNA 3.1(+)
T1 sequence (P10275 1-920): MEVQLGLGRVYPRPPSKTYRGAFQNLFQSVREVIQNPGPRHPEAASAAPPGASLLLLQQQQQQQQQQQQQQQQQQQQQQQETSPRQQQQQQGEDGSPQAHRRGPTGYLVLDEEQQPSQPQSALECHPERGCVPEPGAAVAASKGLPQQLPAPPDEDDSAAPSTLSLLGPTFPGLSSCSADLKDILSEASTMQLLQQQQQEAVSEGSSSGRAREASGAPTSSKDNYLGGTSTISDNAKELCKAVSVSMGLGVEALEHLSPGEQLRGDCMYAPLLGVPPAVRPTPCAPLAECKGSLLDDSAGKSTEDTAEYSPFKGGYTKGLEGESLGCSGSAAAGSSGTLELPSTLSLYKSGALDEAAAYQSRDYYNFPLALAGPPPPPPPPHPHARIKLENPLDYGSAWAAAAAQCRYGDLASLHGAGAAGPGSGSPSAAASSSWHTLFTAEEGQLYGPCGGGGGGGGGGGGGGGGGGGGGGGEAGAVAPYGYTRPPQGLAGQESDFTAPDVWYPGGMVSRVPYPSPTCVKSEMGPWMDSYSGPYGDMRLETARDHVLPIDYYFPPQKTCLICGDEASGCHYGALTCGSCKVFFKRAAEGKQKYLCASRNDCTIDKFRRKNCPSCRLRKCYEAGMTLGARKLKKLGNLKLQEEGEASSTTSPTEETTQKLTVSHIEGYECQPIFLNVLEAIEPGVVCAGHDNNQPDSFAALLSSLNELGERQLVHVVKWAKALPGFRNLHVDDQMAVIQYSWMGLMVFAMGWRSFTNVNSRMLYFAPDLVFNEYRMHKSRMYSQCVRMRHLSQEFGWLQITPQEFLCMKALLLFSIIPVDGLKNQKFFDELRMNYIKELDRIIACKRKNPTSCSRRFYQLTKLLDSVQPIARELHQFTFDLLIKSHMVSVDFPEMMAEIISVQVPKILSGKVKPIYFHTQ
Procedure: A suitable assay to determine the ability of a ligand to transcriptionally activate androgen receptor (AR) is carried out using mouse myoblastic C2C12 cells. The assay involves transfecting C2C12 cells with a plasmid containing full-length AR along with an AR response element linked to luciferase (2XIDR17). The luminescence read-out at the end of the assay is measured using Victor 3 and is a direct measure of the transcriptional activity. The assay has been validated using the reference compound, BMS-564929, for which EC50 values have been reported in a similar set-up.
C2C12 cells were obtained from ATCC (Cat #CRL-1772) and maintained in DMEM modified to contain 4 mM L-glutamine, 4.5 g/L glucose, 1 mM sodium pyruvate and 1.5 g/L sodium bicarbonate and 10% FBS.
AR-FL in pcDNA 3.1(+) and 2XIDR17 in pGL4.26 plasmids prepared using Genelute plasmid miniprep kit from Sigma Cat #PLED35 Steadyglow Luciferase assay system Promega Cat #E2550
• C2C12 cells were seeded in a 96-well plate in DMEM (Dulbecco's Modified Eagle Medium) without phenol red and containing 10% CS-FBS (Charcoal-stripped Fetal Bovine Serum) at 8000 cells/well. • The next day, cells were transfected with an equimolar ratio of (Androgen Receptor-Full length) AR-FL and 2XIDR17-Luciferase at a total plasmid concentration of 200 ng/well using Lipofectamine 2000 following manufacturer's protocol. • For the transfection, 83 ng of AR-FL and 117 ng of 2XIDR17-Luciferase were in 12.5 μl of OptiMEM—Mix A. 0.4 μl of Lipofectamine 2000 was added to 12.5 μl of OptiMEM and incubated for 5 min at room temperature—Mix B. The two mixes A and B were mixed and incubated at room temperature for an additional fifteen minutes. An additional 50 μl of OptiMEM was added, gently mixed and this mixture was added to the cells in the 96-well plate. The above quantities are requirements per well of a 96-well plate. Master mixes were made for the entire plate, with proportional quantity of reagents being used. • 5 h after transfection, compounds were added to the wells in DMEM without phenol red and containing 10% CS-FBS, maintaining a final DMSO concentration of 0.5%. A typical dose response curve starts at 10 μM and includes a 7-point, log dilution, done in triplicates. • After overnight incubation with the compounds, 100 ul of working solution of Steadyglow reagent was added to the wells. • The plates were placed in a shaker for 15 min at the end of which the lysate containing luciferase was transferred to a white flat-bottom plate and read under a luminescence setting in Victor. • Background subtracted counts (Luminescence from DMSO control wells is considered the background) are used to calculate percentage activity, expressed relative to activity with 1 μM (Dihydrotestosterone) DHT (at least two sets of triplicates for 1 μM DHT are included per plate).
The EC50 curves for the compounds for 8 compound concentrations were fitted by the respective function using non-linear least-squares regression in Graphpad Prism 4.0 (Graphpad Software, San Diego, Calif., USA).

Compound	melting point	% Biological activity (C2C12 cell) 100 nM (androgen receptor (AR))	% Biological activity (C2C12 cell) 5 μM (androgen receptor (AR))	Emax (androgen receptor (AR))	EC50 (androgen receptor (AR))
Cc1c(N2C(=O)N(C)C3(CCC(=O)C3)C2=O)ccc(C#N)c1Cl (stereo not shown) [Example 6.2, 2-chloro-3-methyl-4-(1-methyl-2,4,7-trioxo-1,3-diazaspiro[4.4]nonan-3-yl)benzonitrile]	219 °C	9%	29%		
Cc1c(N2C(=O)N(C)C3(CCC(F)(F)C3)C2=O)ccc(C#N)c1Cl (stereo not shown) [Example 6.3, 2-chloro-4-(7,7-difluoro-1-methyl-2,4-dioxo-1,3-diazaspiro[4.4]nonan-3-yl)-3-methylbenzonitrile]	184 °C			63%	0.0149 µM
Cc1c(N2C(=N)C3(CCCC3)N(C)C2=O)ccc(C#N)c1Cl [Example 7.0, 2-chloro-4-(4-imino-1-methyl-2-oxo-1,3-diazaspiro[4.4]nonan-3-yl)-3-methylbenzonitrile]	199 °C			53%	0.103 µM
Cc1c(N2C(=O)N(Cc3ccc(C#N)cc3)C3(CCCC3)C2=O)ccc(C#N)c1Cl [Example 8.0, 2-chloro-4-(1-(4-cyanobenzyl)-2,4-dioxo-1,3-diazaspiro[4.4]nonan-3-yl)-3-methylbenzonitrile]	195 °C			106%	0.00048 µM
Cc1cc(CN2C(=O)N(c3ccc(C#N)c(Cl)c3C)C(=O)C23CCCC3)no1 [Example 8.1, 2-chloro-3-methyl-4-(1-((5-methylisoxazol-3-yl)methyl)-2,4-dioxo-1,3-diazaspiro[4.4]nonan-3-yl)benzonitrile]	134 °C			109%	0.006 µM
Cc1noc(C)c1CN1C(=O)N(c2ccc(C#N)c(Cl)c2C)C(=O)C12CCCC2 [Example 8.3, 2-chloro-4-(1-((3,5-dimethylisoxazol-4-yl)methyl)-2,4-dioxo-1,3-diazaspiro[4.4]nonan-3-yl)-3-methylbenzonitrile]	109 °C	3%	19%		
Cc1c(N2C(=O)N(Cc3ccccn3)C3(CCCC3)C2=O)ccc(C#N)c1Cl [Example 8.4, 2-chloro-4-(2,4-dioxo-1-(pyridin-2-ylmethyl)-1,3-diazaspiro[4.4]nonan-3-yl)-3-methylbenzonitrile]	179 °C			96%	0.048 µM
Cc1c(N2C(=O)N(Cc3ccncc3)C3(CCCC3)C2=O)ccc(C#N)c1Cl [Example 8.5, 2-chloro-4-(2,4-dioxo-1-(pyridin-4-ylmethyl)-1,3-diazaspiro[4.4]nonan-3-yl)-3-methylbenzonitrile]	76 °C				0.0307 µM
Cc1ccc(CN2C(=O)N(c3ccc(C#N)c(Cl)c3C)C(=O)C23CCCC3)cn1 [Example 8.6, 2-chloro-3-methyl-4-(1-((6-methylpyridin-3-yl)methyl)-2,4-dioxo-1,3-diazaspiro[4.4]nonan-3-yl)benzonitrile]	177 °C				0.011 µM
Cc1c(N2C(=O)N(CCOCCF)C3(CCCC3)C2=O)ccc(C#N)c1Cl [Example 9.2, 2-chloro-4-(1-(2-(2-fluoroethoxy)ethyl)-2,4-dioxo-1,3-diazaspiro[4.4]nonan-3-yl)-3-methylbenzonitrile]	112 °C			83%	0.0178 ± 0.0066 µM
Cc1c(N2C(=O)N(CC(C)C)C3(CCCC3)C2=O)ccc(C#N)c1Cl [Example 9.5, 2-chloro-4-(1-isobutyl-2,4-dioxo-1,3-diazaspiro[4.4]nonan-3-yl)-3-methylbenzonitrile]	115 °C	11%	74%		
Cc1c(N2C(=O)N(CCO)C3(CCCC3)C2=O)ccc(C#N)c1Cl [Example 9.7, 2-chloro-4-(1-(2-hydroxyethyl)-2,4-dioxo-1,3-diazaspiro[4.4]nonan-3-yl)-3-methylbenzonitrile]	98 °C			76%	0.199 µM
Cc1c(N2C(=O)N(CC3CCOC3)C3(CCCC3)C2=O)ccc(C#N)c1Cl (stereo not shown) [Example 11.0, 2-chloro-4-(2,4-dioxo-1-((tetrahydrofuran-3-yl)methyl)-1,3-diazaspiro[4.4]nonan-3-yl)-3-methylbenzonitrile]	70 °C	25%	48%		
Cc1c(N2C(=O)N(C)C3(CCC3)C2=O)ccc(C#N)c1Cl [Example 12.0, 2-chloro-3-methyl-4-(5-methyl-6,8-dioxo-5,7-diazaspiro[3.4]octan-7-yl)benzonitrile]	133 °C	67%	70%		
